# Like-named read-outs stand apart in the source and are kept apart here.
# Legend:
# PI3K = PI3K (Homo sapiens, UniProt P42336); assay: Fluorescence polarization assay for PI3K; format: biochemical;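 further: PI3K kinase reaction on PIP2 with ATP, 30-60 min, product sensed by GST-GRP with red probe in fluorescence polarization (mP), controls without enzyme and at zero time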
# prostate line LNCap = assay: In vitro cell culture growth assay (MTS), LNCap; format: cell-based, human; details: LNCap cells, three days after drug treatment
# breast line MDA468 = assay: In vitro cell culture growth assay (MTS), MDA468; format: cell-based, human; details: Homo sapiens, 72 h, MDA468 cells, three days after drug treatment
# Method in brief: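 Cells were plated and, one day later, exposed to inhibitors for three days; viable cell density was then measured by metabolic conversion of MTS dye, read as absorbance at 490 nm. Growth is expressed as percent of vehicle-treated control cells on the same plate.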
# PI3K, sequence (P42336 whole entry): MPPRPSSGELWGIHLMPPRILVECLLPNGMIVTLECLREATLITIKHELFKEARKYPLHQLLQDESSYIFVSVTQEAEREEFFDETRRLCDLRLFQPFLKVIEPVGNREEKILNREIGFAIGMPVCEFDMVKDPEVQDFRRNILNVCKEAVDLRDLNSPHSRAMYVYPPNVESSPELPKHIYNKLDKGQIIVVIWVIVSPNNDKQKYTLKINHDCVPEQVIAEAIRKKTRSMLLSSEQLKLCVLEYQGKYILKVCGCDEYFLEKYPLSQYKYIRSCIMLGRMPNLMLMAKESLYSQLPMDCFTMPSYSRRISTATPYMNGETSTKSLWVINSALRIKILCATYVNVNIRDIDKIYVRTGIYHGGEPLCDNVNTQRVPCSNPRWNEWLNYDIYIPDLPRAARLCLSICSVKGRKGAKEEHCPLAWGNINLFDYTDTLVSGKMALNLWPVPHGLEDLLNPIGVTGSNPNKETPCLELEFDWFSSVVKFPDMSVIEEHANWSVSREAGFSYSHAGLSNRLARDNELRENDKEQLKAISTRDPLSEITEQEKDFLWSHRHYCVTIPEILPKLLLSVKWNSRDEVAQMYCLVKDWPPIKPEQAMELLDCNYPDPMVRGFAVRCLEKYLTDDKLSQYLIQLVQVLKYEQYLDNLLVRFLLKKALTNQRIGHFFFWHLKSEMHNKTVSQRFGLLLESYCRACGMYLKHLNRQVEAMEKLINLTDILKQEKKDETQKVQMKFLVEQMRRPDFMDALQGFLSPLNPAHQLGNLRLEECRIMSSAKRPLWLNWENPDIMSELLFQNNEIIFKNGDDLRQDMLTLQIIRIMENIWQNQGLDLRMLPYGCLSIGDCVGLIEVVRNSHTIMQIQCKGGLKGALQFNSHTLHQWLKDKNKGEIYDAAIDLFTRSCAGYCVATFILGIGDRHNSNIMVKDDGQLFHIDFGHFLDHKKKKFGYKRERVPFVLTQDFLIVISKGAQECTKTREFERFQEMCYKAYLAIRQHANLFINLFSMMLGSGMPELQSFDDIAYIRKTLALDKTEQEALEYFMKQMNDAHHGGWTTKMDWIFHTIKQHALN
# PI3K, sequence (P27986 whole entry partner): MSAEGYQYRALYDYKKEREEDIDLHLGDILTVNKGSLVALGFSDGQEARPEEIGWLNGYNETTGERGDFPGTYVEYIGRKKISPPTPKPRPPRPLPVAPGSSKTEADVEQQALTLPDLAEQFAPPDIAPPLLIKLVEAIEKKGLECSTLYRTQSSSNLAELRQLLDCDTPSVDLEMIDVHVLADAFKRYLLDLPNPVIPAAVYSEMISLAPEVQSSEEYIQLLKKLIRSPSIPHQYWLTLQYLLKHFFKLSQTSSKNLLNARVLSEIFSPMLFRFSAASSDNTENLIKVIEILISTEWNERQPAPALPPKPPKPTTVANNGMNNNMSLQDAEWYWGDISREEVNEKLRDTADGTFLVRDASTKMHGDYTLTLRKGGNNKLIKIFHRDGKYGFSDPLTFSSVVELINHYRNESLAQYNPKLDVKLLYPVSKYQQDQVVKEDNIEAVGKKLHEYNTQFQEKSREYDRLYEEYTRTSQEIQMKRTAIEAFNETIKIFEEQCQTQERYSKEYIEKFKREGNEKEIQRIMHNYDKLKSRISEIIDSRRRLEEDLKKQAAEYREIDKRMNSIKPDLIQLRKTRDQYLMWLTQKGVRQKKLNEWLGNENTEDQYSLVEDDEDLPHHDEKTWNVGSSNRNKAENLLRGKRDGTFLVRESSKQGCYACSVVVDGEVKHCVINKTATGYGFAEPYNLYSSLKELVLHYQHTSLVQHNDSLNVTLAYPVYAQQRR
Structure (SMILES),"IC50 (PI3K; PI3Kα, read-out: PI3Kα IC50)","IC50 (prostate line LNCap; Homo sapiens, LNCaP, 72 h)",IC50 (breast line MDA468),IC50 (prostate line LNCap),"IC50 (PI3K; PI3Kα IC50, PI3Kα)","IC50 (prostate line LNCap; Homo sapiens, 72 h)"
c1ccc(-n2ncc3c(N4CCOCC4)nc(-c4ccc5occc5c4)nc32)cc1 [Compound 117],699 nM,60000 nM,60000 nM,–,–,–
"CCONC(=O)Nc1ccc(-c2nc(N3CCOCC3)c3cnn(C4CCN(Cc5ccccc5)CC4)c3n2)cc1 [Compound 533, 1-{4-[1-(1-benzylpiperidin-4-yl)-4-morpholin-4-yl-1H-pyrazolo[3,4-d]pyrimidin-6-yl]phenyl}-3-ethoxyurea]",273 nM,680 nM,160 nM,–,–,–
"CNC(=O)Nc1ccc(-c2nc(N3CCOCC3)c3cnn(C4CCN(C(=O)c5ccc(F)cc5)CC4)c3n2)cc1 [Example 361, 1-(4-{1-[1-(4-fluorobenzoyl)piperidin-4-yl]-4-morpholin-4-yl-1H-pyrazolo[3,4-d]pyrimidin-6-yl}phenyl)-3-methylurea]",108 nM,27 nM,100 nM,–,–,–
"C=COC(=O)N1CCC(n2ncc3c(N4CCOCC4)nc(-c4ccc(NC(=O)NC)cc4)nc32)CC1 [Compound 753, vinyl 4-(6-{4-[(methylcarbamoyl)amino]phenyl}-4-morpholin-4-yl-1H-pyrazolo[3,4-d]pyrimidin-1-yl)piperidine-1-carboxylate]",100 nM,47 nM,110 nM,–,–,–
O=C1CCCN1CCn1ncc2c(N3CCOCC3)nc(-c3ccc4[nH]ccc4c3)nc21 [Compound 161],3510 nM,14000 nM,60000 nM,–,–,–
"CNC(=O)Nc1ccc(-c2nc(N3CCOCC3)c3cnn(C4CCN(C(=O)c5ccc(C)nc5)CC4)c3n2)cc1 [Example 420, 1-methyl-3-[4-(1-{1-[(6-methylpyridin-3-yl)carbonyl]piperidin-4-yl}-4-morpholin-4-yl-1H-pyrazolo[3,4-d]pyrimidin-6-yl)phenyl]urea]",119 nM,330 nM,300 nM,–,–,–
"O=C(Cc1ccccc1)N1CCC(n2ncc3c(N4CCOCC4)nc(-c4ccc5[nH]ccc5c4)nc32)CC1 [Compound 242, 6-(1H-indol-5-yl)-4-morpholin-4-yl-1-[1-(phenylacetyl)piperidin-4-yl]-1H-pyrazolo[3,4-d]pyrimidine]",692 nM,700 nM,3000 nM,–,–,–
"O=C(NCCO)Nc1ccc(-c2nc(N3CCOCC3)c3cnn(C4CCN(C(=O)c5ccccc5)CC4)c3n2)cc1 [Example 385, 1-{4-[1-(1-benzoylpiperidin-4-yl)-4-morpholin-4-yl-1H-pyrazolo[3,4-d]pyrimidin-6-yl]phenyl}-3-(2-hydroxyethyl)urea]",229 nM,800 nM,700 nM,–,–,–
"CNC(=O)Nc1ccc(-c2nc(N3CCOCC3)c3cnn(C4CCC(O)CC4)c3n2)cc1 (stereo not drawn) [Example 323, 1-{4-[1-(4-hydroxycyclohexyl)-4-morpholin-4-yl-1H-pyrazolo[3,4-d]pyrimidin-6-yl]phenyl}-3-methylurea]",39 nM,54 nM,200 nM,–,–,–
"COC(=O)N1CCC(n2ncc3c(N4CCOC(C)C4)nc(-c4ccc(NC(=O)NC5CC5)cc4)nc32)CC1 (stereo not drawn) [Compound 843, methyl 4-[6-{4-[(cyclopropylcarbamoyl)amino]phenyl}-4-(2-methylmorpholin-4-yl)-1H-pyrazolo[3,4-d]pyrimidin-1-yl]piperidine-1-carboxylate]",1380 nM,80 nM,900 nM,–,–,–
"O=C(Nc1ccc(-c2nc(N3CCOCC3)c3cnn(C4CCN(C(=O)c5cccnc5)CC4)c3n2)cc1)Nc1cccs1 [Compound 657, 1-(4-{4-morpholin-4-yl-1-[1-(pyridin-3-ylcarbonyl)piperidin-4-yl]-1H-pyrazolo[3,4-d]pyrimidin-6-yl}phenyl)-3-(2-thienyl)urea]",14 nM,–,40 nM,35 nM,–,–
"CNC(=O)Nc1ccc(-c2nc(N3CCOCC3)c3cnn(C4CCN(C(=O)Nc5cccnc5)CC4)c3n2)cc1 [Example 335, 4-(6-{4-[(methylcarbamoyl)amino]phenyl}-4-morpholin-4-yl-1H-pyrazolo[3,4-d]pyrimidin-1-yl)-N-pyridin-3-ylpiperidine-1-carboxamide]",30 nM,3000 nM,2500 nM,–,–,–
"CNC(=O)Nc1ccc(-c2nc(N3CCOCC3)c3cnn(C4CCC5(CC4)OCCO5)c3n2)cc1 [Example 321, 1-{4-[1-(1,4-dioxaspiro[4.5]dec-8-yl)-4-morpholin-4-yl-1H-pyrazolo[3,4-d]pyrimidin-6-yl]phenyl}-3-methylurea]",74 nM,27 nM,100 nM,–,–,–
"CNC(=O)Nc1ccc(-c2nc(N3CCOCC3)c3cnn(C4CCN(C(=O)c5cccc(C)c5)CC4)c3n2)cc1 [Compound 612, 1-methyl-3-(4-{1-[1-(3-methylbenzoyl)piperidin-4-yl]-4-morpholin-4-yl-1H-pyrazolo[3,4-d]pyrimidin-6-yl}phenyl)urea]",72 nM,< 27 nM,27 nM,–,–,–
"COC(=O)N1CCC(n2ncc3c(N4CCOCC4)nc(-c4ccc(NC(=O)Oc5ccc(F)cc5)cc4)nc32)CC1 [Compound 948, methyl 4-[6-(4-{[(4-fluorophenoxy)carbonyl]amino}phenyl)-4-morpholin-4-yl-1H-pyrazolo[3,4-d]pyrimidin-1-yl]piperidine-1-carboxylate]",–,–,700 nM,–,8830 nM,220 nM
"O=C(Nc1ccccc1)Nc1ccc(-c2nc(N3CCOCC3)c3cnn(C4CCNCC4)c3n2)cc1 [Compound 777, 1-[4-(4-morpholin-4-yl-1-piperidin-4-yl-1H-pyrazolo[3,4-d]pyrimidin-6-yl)phenyl]-3-phenylurea]",19 nM,130 nM,140 nM,–,–,–

Structure (SMILES),"IC50 (PI3K; PI3Kα, read-out: PI3Kα IC50)","IC50 (prostate line LNCap; Homo sapiens, LNCaP, 72 h)",IC50 (breast line MDA468),IC50 (prostate line LNCap),"IC50 (PI3K; PI3Kα IC50, PI3Kα)","IC50 (prostate line LNCap; Homo sapiens, 72 h)"
"CONC(=O)Nc1ccc(-c2nc(N3CCOCC3)c3cnn(-c4ccccc4)c3n2)cc1 [Compound 541, 1-methoxy-3-[4-(4-morpholin-4-yl-1-phenyl-1H-pyrazolo[3,4-d]pyrimidin-6-yl)phenyl]urea]",404 nM,1800 nM,5000 nM,–,–,–
Oc1cccc(CN2CCC(n3ncc4c(N5CCOCC5)nc(-c5ccc6[nH]ccc6c5)nc43)CC2)c1 [Example 76],522 nM,900 nM,1000 nM,–,–,–
"CCOC(=O)Nc1ccc(-c2nc(N3CCOCC3)c3cnn(C4CCN(C(=O)c5ccccc5)CC4)c3n2)cc1 [Example 383, Ethyl {4-[1-(1-benzoylpiperidin-4-yl)-4-morpholin-4-yl-1H-pyrazolo[3,4-d]pyrimidin-6-yl]phenyl}carbamate]",1580 nM,900 nM,4300 nM,–,–,–
COc1ccc(-c2nc(N3CCOCC3)c3cnn(-c4ccccc4)c3n2)cn1 [Example 4],5500 nM,20000 nM,38000 nM,–,–,–
O=C(N1CCCC1)N1CCC(n2ncc3c(N4CCOCC4)nc(-c4ccc5[nH]ccc5c4)nc32)CC1 [Compound 123],1300 nM,450 nM,1800 nM,–,–,–
"CNC(=O)Nc1ccc(-c2nc(N3CCOCC3)c3cnn(C4CCN(C(=O)N5CCN(C)CC5)CC4)c3n2)cc1 [Example 334, 1-methyl-3-[4-(1-{1-[(4-methylpiperazin-1-yl)carbonyl]piperidin-4-yl}-4-morpholin-4-yl-1H-pyrazolo[3,4-d]pyrimidin-6-yl)phenyl]urea]",71 nM,400 nM,700 nM,–,–,–
"CC(=O)Nc1ccc(-c2nc(N3CCOCC3)c3cnn(C4CCN(C(=O)c5cccnc5)CC4)c3n2)cc1 [Example 159, N-(4-{4-morpholin-4-yl-1-[1-(pyridin-3-ylcarbonyl)piperidin-4-yl]-1H-pyrazolo[3,4-d]pyrimidin-6-yl}phenyl)acetamide]",878 nM,630 nM,2500 nM,–,–,–
O=C(c1ccc[n+]([O-])c1)N1CCC(n2ncc3c(N4CCOCC4)nc(-c4ccc5[nH]ccc5c4)nc32)CC1 [Compound 197],3060 nM,2500 nM,3800 nM,–,–,–
"Oc1cccc(-c2nc(N3CCOCC3)c3cnn(CC(F)(F)F)c3n2)c1 [Compound 728, 3-[4-morpholin-4-yl-1-(2,2,2-trifluoroethyl)-1H-pyrazolo[3,4-d]pyrimidin-6-yl]phenol]",40 nM,240 nM,745 nM,–,–,–
c1ccc(CN2CCC(n3ncc4c(N5CCOCC5)nc(-c5ccn[nH]5)nc43)CC2)cc1 [Compound 188],3000 nM,7000 nM,19000 nM,–,–,–
"O=C(c1cccnc1)N1CCC(n2ncc3c(N4CCOCC4)nc(-c4ccc5[nH]ccc5c4)nc32)CC1 [Compound 38, 6-(1H-indol-5-yl)-4-morpholin-4-yl-1-[1-(pyridin-3-ylcarbonyl)piperidin-4-yl]-1H-pyrazolo[3,4-d]pyrimidine]",–,380 nM,1100 nM,–,–,–
Nc1cccc(-c2nc(N3CCOCC3)c3cnn(-c4ccccc4)c3n2)c1 [Compound 107],–,3500 nM,10000 nM,–,–,–
Nc1ncc(-c2nc(N3CCOCC3)c3cnn(C4CCN(Cc5ccccc5)CC4)c3n2)cn1 [Compound 191],–,80 nM,400 nM,–,–,–
"COC(=O)Nc1ccc(-c2nc(N3CCOCC3)c3cnn(-c4ccccc4)c3n2)cc1 [Example 101, methyl [4-(4-morpholin-4-yl-1-phenyl-1H-pyrazolo[3,4-d]pyrimidin-6-yl)phenyl]carbamate]",–,10000 nM,22000 nM,–,–,–
c1ccc(-n2ncc3c(N4CCOCC4)nc(-c4ccc5[nH]ccc5c4)nc32)cc1 [Compound 110],–,2000 nM,5500 nM,–,–,–
"CNC(=S)Nc1ccc(-c2nc(N3CCOCC3)c3cnn(C4CCN(Cc5cccnc5)CC4)c3n2)cc1 [Example 377, 1-methyl-3-(4-{4-morpholin-4-yl-1-[1-(pyridin-3-ylmethyl)piperidin-4-yl]-1H-pyrazolo[3,4-d]pyrimidin-6-yl}phenyl)thiourea]",–,70 nM,500 nM,–,–,–

# Source: US20080234262A1 (Wyeth, priority 2007, published 2008)
